In publication PMC6326728, “eIF2B activator prevents neurological defects caused by a chronic integrated stress response” (eLife, 2019) one finds inhibition data, which are given here for one compound.

Holding throughout (experiment): biochemical
What all share (parameters): CEREP panel radioligand binding displacement, % inhibition of control specific binding by 10 uM 2BAct

The target in assay [1] is T1, A2b (h) (Homo sapiens, UniProt P29275).
T1 construct: gene ADORA2B
Conditions: Type=Antagonist radioligand; read-out: % inhibition of Control specific binding. How it is done:
(§1) Supplementary file elife-42940-supp1.xlsx: Supplementary file 1. (A) Binding of 2BAct at 10 μM to the CEREP panel of receptors/enzymes/ion channels. Compound binding was calculated as a % inhibition of the binding of a radioactively labeled ligand specific for each target. Results showing inhibition or stimulation higher than 50% are considered to represent significant effects of the test compound. (B) Pharmacokinetic data from 2BAct dosing in mice. (C) GO Biological Processes identified by enrichment analysis of RNA-seq data. (D) List of genes used for enrichment analysis of scRNA-seq data.

Assay [2] addresses T2, UT (h) (Homo sapiens, UniProt Q9UKP6).
T2 construct: gene UTS2R
To be noted: Type=Agonist radioligand; read-out: % inhibition of Control specific binding. How it is done:
as §1

Assay [3] deals with T3, MT2 (ML1B) (h) (Homo sapiens, UniProt P49286).
T3 construct: gene MTNR1B
T3 sequence (P49286 whole entry): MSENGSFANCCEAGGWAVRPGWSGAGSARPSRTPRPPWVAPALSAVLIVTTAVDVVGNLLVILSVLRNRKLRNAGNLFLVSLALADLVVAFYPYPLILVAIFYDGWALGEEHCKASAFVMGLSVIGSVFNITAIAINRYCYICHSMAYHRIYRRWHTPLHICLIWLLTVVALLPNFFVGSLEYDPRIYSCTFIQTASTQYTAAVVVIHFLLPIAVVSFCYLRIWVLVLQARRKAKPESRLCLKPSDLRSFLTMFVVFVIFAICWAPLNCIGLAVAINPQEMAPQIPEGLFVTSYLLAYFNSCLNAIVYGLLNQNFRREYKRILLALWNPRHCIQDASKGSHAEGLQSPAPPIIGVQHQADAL
Conditions: Type=Agonist radioligand; read-out: % inhibition of Control specific binding. As to the method:
as §1

For assay [4], the target named is T4, CB1 (h) (Homo sapiens, UniProt P21554).
T4 construct: gene CNR1
T4 sequence (P21554 whole entry): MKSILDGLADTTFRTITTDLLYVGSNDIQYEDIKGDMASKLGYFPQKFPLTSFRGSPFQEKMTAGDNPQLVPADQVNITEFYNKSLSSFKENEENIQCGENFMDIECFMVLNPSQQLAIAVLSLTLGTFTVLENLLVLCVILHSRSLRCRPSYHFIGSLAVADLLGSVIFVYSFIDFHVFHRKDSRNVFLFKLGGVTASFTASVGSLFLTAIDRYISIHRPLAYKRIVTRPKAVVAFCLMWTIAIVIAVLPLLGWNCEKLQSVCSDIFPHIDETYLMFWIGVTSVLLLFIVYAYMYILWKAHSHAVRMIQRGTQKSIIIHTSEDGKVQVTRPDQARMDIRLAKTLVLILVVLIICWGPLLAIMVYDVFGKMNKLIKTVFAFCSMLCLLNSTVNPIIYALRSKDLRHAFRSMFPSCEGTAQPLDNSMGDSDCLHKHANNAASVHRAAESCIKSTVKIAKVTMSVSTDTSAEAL
To be noted: Type=Agonist radioligand; read-out: % inhibition of Control specific binding. How it is done: as §1

The target of assay [5] is T5, b1 (h) (Homo sapiens, UniProt P08588).
T5 construct: gene ADRB1
To be noted: Type=Agonist radioligand; read-out: % inhibition of Control specific binding. As to the method: as §1

Assay [6] addresses T6, CB2 (h) (Homo sapiens, UniProt P34972).
T6 construct: gene CNR2
To be noted: Type=Agonist radioligand; read-out: % inhibition of Control specific binding. How it is done:
as §1

Assay [7] addresses T7, a1B (h) (Homo sapiens, UniProt P35368).
T7 construct: gene ADRA1B
To be noted: Type=Antagonist radioligand; read-out: % inhibition of Control specific binding. How it is done:
as §1

The target of assay [8] is T8, VPAC1 (VIP1) (h) (Homo sapiens, UniProt P32241).
T8 construct: gene VIPR1
Conditions: Type=Agonist radioligand; read-out: % inhibition of Control specific binding. How it is done:
as §1

In assay [9] the target is T9, GR (h) (Homo sapiens, UniProt P04150).
T9 construct: gene NR3C1
T9 sequence (P04150 whole entry): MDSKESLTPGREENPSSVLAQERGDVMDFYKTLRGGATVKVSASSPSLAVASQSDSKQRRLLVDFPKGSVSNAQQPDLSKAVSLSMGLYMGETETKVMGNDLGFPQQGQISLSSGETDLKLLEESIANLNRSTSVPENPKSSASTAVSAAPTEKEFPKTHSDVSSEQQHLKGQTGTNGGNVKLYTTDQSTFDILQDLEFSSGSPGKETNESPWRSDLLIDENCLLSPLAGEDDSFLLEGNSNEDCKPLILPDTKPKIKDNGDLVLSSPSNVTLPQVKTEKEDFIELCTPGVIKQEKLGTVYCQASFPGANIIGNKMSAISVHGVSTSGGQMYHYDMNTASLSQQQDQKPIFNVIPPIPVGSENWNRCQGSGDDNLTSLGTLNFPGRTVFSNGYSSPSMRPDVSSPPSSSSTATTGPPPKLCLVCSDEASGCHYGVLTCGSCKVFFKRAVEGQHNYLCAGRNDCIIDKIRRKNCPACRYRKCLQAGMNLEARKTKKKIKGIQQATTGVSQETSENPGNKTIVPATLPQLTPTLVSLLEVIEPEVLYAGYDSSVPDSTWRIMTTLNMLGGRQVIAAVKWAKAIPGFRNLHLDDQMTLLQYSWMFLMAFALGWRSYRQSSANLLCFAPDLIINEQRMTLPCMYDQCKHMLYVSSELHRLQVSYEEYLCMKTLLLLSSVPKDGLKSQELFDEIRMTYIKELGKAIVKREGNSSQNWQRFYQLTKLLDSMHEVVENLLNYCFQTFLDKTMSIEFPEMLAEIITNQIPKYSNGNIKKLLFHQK
Conditions: Type=Agonist radioligand; read-out: % inhibition of Control specific binding. As to the method: as §1

In assay [10] the target is T10, 5-HT1A (h) (Homo sapiens, UniProt P08908).
T10 construct: gene HTR1A
To be noted: Type=Agonist radioligand; read-out: % inhibition of Control specific binding. How it is done: as §1

The target in assay [11] is T11, B2 (h) (Homo sapiens, UniProt P30411).
T11 construct: gene BDKRB2
T11 sequence (P30411 whole entry): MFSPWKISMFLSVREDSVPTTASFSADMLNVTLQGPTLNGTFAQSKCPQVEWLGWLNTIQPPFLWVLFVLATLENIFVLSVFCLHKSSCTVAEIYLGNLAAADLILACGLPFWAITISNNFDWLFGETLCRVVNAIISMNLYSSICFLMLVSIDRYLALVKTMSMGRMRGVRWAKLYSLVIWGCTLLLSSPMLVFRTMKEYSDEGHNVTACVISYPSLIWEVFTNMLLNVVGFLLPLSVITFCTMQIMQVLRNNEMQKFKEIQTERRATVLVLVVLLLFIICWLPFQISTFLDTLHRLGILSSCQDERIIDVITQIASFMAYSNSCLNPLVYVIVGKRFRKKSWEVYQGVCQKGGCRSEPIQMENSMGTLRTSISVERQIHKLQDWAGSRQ
Conditions: Type=Agonist radioligand; read-out: % inhibition of Control specific binding. How it is done:
as §1

In assay [12] the target is T12, A3 (h) (Homo sapiens, UniProt P0DMS8).
T12 construct: gene ADORA3
T12 sequence (P0DMS8 whole entry): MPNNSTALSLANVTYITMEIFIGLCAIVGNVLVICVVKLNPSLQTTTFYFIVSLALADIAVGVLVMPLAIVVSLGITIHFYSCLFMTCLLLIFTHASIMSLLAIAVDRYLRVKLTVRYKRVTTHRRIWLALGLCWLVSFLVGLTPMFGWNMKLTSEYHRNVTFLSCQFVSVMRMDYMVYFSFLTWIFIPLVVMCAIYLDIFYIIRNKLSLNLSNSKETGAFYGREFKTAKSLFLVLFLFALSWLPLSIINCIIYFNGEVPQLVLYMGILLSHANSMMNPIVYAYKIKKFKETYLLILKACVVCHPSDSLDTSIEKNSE
Conditions: Type=Agonist radioligand; read-out: % inhibition of Control specific binding. How it is done:
as §1

The target of assay [13] is T13, AT2 (h) (Homo sapiens, UniProt P50052).
T13 construct: gene AGTR2
T13 sequence (P50052 whole entry): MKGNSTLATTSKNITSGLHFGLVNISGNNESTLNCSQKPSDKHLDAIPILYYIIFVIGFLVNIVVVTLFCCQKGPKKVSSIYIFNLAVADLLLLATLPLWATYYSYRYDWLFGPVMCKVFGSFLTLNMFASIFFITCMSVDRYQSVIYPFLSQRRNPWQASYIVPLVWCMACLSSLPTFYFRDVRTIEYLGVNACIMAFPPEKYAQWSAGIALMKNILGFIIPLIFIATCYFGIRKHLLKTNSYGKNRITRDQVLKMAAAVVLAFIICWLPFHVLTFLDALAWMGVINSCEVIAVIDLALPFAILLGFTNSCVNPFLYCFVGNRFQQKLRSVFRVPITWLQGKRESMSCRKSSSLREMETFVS
Conditions: Type=Agonist radioligand; read-out: % inhibition of Control specific binding. How it is done: as §1

Assay [14] concerns the target T14, GABA-A1 (h) (a1, b2, g2) (Homo sapiens, UniProt P14867+P18507+P47870).
T14 construct: gene GABRA1; a1, b2, g2
To be noted: Type=Agonist radioligand; read-out: % inhibition of Control specific binding. As to the method: as §1

The target in assay [15] is T15, 5-HT transporter (h) (Homo sapiens, UniProt P31645).
T15 construct: gene SLC6A4
Conditions: Type=Antagonist radioligand; read-out: % inhibition of Control specific binding. How it is done:
as §1

The target of assay [16] is T16, M4 (h) (Homo sapiens, UniProt P08173).
T16 construct: gene CHRM4
T16 sequence (P08173 whole entry): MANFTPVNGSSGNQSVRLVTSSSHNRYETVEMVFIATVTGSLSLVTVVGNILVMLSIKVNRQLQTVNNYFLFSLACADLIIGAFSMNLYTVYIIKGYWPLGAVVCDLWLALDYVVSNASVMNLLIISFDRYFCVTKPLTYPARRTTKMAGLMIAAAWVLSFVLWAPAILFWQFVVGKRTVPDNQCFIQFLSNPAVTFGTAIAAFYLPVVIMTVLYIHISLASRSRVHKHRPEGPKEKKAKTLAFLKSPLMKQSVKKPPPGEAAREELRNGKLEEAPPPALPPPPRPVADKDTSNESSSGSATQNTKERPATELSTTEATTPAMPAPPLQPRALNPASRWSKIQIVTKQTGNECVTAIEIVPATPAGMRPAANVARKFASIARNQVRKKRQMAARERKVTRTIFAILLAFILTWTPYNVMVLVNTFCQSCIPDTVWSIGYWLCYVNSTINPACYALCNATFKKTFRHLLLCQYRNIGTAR
Conditions: Type=Antagonist radioligand; read-out: % inhibition of Control specific binding. How it is done:
as §1

SMILES strings stand for the structures.

T14 sequence (P14867 whole entry): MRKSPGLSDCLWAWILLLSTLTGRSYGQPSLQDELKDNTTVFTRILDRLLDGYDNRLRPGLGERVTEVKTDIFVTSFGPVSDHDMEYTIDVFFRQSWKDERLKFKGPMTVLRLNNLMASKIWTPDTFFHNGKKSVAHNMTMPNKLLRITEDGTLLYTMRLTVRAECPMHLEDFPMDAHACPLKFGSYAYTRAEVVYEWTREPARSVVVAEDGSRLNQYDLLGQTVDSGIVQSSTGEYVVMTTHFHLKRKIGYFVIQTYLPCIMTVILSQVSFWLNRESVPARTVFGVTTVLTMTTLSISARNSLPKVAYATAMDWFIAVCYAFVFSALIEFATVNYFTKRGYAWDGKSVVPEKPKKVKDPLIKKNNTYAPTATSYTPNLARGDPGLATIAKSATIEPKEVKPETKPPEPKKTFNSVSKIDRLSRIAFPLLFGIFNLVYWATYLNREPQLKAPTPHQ
T14 sequence (P18507 whole entry): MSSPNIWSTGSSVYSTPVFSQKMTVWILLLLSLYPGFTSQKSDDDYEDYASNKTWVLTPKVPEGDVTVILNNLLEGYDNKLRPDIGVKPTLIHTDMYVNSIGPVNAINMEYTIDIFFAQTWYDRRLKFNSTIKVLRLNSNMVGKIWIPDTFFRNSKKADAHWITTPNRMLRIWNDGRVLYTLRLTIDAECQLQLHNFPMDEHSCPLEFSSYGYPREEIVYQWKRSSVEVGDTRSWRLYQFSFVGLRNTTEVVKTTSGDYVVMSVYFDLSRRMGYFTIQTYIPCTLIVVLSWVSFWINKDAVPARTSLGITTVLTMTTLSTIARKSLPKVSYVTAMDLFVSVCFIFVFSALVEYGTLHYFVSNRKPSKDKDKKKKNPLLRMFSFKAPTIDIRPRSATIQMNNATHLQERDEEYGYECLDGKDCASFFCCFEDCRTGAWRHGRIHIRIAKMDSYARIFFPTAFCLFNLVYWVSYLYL
T14 sequence (P47870 whole entry): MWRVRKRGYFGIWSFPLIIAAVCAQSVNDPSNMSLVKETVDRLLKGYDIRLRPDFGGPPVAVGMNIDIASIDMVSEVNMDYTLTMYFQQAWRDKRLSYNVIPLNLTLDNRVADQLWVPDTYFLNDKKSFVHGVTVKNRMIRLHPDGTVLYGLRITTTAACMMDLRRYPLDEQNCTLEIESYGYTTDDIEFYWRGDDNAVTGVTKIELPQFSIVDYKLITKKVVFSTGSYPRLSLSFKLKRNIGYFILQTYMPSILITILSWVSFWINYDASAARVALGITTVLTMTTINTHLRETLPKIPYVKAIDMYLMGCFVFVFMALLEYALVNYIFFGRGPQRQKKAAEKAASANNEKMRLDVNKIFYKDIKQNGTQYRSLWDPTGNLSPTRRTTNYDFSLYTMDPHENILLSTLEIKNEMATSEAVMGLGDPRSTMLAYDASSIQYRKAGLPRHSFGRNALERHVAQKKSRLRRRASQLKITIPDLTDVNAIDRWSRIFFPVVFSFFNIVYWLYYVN
T6 sequence (P34972 whole entry): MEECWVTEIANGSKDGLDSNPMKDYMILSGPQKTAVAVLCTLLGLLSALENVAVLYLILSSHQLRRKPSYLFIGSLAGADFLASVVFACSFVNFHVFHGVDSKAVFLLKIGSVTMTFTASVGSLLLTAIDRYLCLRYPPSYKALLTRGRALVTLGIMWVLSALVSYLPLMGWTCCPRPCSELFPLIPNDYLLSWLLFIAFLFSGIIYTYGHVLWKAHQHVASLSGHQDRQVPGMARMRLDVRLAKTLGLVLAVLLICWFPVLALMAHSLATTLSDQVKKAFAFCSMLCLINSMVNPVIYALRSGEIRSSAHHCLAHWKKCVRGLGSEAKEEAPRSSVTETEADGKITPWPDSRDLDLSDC

The inhibition is the drop in the measured response relative to a control, in per cent. `O=C(COc1ccc(Cl)c(F)c1)NC12CC(NC(=O)c3cnc(C(F)F)cn3)(C1)C2` [2BAct]: the inhibition at 10 µM in [1] is 50.1%; in assay [2] it was 5.8%; in assay [3], -2%; in assay [4], 8.3%; in [5], 7.8%; in [6], 2%. Moreover, the inhibition at 10 µM is -14.2% in assay [7]; -9.7% in assay [8]; 3.2% in [9]; 15.8% in assay [10]; 8.7% in assay [11]; 20.6% in assay [12]. Moreover, the inhibition at 10 µM in assay [13] is 0.2%; in [14], -19.5%; in [15], 7.9%; in assay [16] it was 11%.
